Our source for the EC50 values is patent publication US6908935B2, “Calcium receptor modulating agents” (Amgen Inc., priority 2002, dated 2005).

Where only a bound is given, the exact number is not on record here.

The experiment concerns the target T1, human parathyroid cell Ca^2+ receptor (hPCaR) (Homo sapiens, UniProt P41180).
T1 construct: expressed in transfected cells
T1 sequence (P41180 20-1078): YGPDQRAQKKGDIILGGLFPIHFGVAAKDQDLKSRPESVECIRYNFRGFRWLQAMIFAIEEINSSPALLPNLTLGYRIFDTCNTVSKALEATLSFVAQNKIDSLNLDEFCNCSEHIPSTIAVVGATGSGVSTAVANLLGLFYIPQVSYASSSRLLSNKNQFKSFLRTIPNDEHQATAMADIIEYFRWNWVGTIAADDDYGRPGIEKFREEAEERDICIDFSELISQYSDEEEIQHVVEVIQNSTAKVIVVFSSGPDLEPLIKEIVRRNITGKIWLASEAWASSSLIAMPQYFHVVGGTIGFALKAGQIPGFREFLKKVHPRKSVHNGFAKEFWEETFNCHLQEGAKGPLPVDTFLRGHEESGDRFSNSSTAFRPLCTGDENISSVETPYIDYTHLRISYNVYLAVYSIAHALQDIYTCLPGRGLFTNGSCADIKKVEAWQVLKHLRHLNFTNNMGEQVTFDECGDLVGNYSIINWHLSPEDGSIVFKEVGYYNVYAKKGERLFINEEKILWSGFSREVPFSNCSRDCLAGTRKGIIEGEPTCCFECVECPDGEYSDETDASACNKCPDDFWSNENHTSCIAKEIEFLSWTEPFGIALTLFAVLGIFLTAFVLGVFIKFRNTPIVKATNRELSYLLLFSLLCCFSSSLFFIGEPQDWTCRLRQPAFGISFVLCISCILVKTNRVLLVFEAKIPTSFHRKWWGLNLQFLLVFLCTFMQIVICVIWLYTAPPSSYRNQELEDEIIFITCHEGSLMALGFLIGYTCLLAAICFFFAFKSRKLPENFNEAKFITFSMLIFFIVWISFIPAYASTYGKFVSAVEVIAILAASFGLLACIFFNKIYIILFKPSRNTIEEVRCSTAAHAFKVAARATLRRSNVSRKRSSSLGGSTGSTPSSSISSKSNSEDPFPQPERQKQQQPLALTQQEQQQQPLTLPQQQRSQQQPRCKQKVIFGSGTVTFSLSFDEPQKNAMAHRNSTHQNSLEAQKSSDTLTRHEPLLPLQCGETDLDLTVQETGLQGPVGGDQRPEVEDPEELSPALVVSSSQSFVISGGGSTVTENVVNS
Nature of the experiment: [Ca2+]i measurement with fluo-3 in HEK 293 4.0-7 cells stably transfected with hPCaR. Format: cell-based. To be noted: fluo-3 fluorescence (485/530 nm), effect on [Ca^2+]i. A digest of the protocol:
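HEK 293 cells stably expressing human parathyroid Ca2+ receptor (clone 4.0-7), loaded with 2 μM fluo-3 AM for 30 min at 37 °C in parathyroid cell buffer (pH 7.45) with 1 mM CaCl2 and 0.5% BSA. After compound addition, intracellular Ca2+ followed by fluorescence at 485 nm excitation/530 nm emission.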

`COc1ccc(CN[C@H](C)c2cccc3ccccc23)cc1-c1ccccn1` [(1R)-N-((4-(methyloxy)-3-(2-pyridinyl)phenyl)methyl)-1-(1-naphthalenyl)ethanamine]: the concentration giving a half-maximal response (EC50) (as a rule, the concentration needed to bring the measured effect to its halfway point) is not above 10 µM.

For the compound `COc1ccc(CN[C@H](C)c2cccc(C#N)c2)cc1-c1ccc(C(F)(F)F)cc1` (stereo in doubt) [3-(1-(((6-(methyloxy)-4′-(trifluoromethyl)-1,1′-biphenyl-3-yl)methyl)amino)ethyl)benzonitrile], the EC50 is not above 10 µM. The figure for `COc1ccc(CN[C@H](C)c2cccc3ccccc23)cc1-c1ccsc1` [(1R)-N-((4-(methyloxy)-3-(3-thienyl)phenyl)methyl)-1-(1-naphthalenyl)ethanamine] is not above 10 µM; for `COc1ccc(CN[C@H](C)c2ccccc2)cc1-c1ccc(OCCN2CCCC2)nc1` [(1R)-N-((4-(methyloxy)-3-(6-((2-(1-pyrrolidinyl)ethyl)oxy)-3-pyridinyl)phenyl)methyl)-1-phenylethanamine] it is not above 10 µM.

`COc1cccc([C@@H](C)NCc2ccc(OC)c(-c3ccc(OC)nc3)c2)c1` [(1R)-N-((4-(methyloxy)-3-(6-(methyloxy)-3-pyridinyl)phenyl)methyl)-1-(3-(methyloxy)phenyl)ethanamine]: the EC50 was not above 10 µM. `COc1ccc(CN[C@H](C)c2ccccc2)cc1-c1csc(N)n1` [4-(2-(methyloxy)-5-((((1R)-1-phenylethyl)amino)methyl)phenyl)-1,3-thiazol-2-amine] returned a concentration for a half-maximal effect (EC50) not above 10 µM. The figure for `COc1cccc([C@@H](C)NCc2ccc(I)c(-c3ccc(C(F)(F)F)cc3)c2)c1` [(1R)-N-((6-iodo-4′-(trifluoromethyl)-1,1′-biphenyl-3-yl)methyl)-1-(3-(methyloxy)phenyl)ethanamine] is not above 10 µM. On to `COc1ccc([C@@H](C)NCc2ccc(OC)c(-c3cncnc3)c2)cc1` [(1R)-1-(4-(methyloxy)phenyl)-N-((4-(methyloxy)-3-(5-pyrimidinyl)phenyl)methyl)ethanamine], for which the concentration for a half-maximal effect (EC50) was not above 10 µM. Then `C[C@@H](NCc1ccc(I)c(-c2ccc(C(F)(F)F)cc2)c1)c1ccccc1` [(1R)-N-((6-iodo-4′-(trifluoromethyl)-1,1′-biphenyl-3-yl)methyl)-1-phenylethanamine], with not above 10 µM. The figure for `Cc1ccc([C@@H](C)NCc2cccc(-c3ccc(C)nc3)c2)cc1` [(1R)-1-(4-methylphenyl)-N-((3-(6-methyl-3-pyridinyl)phenyl)methyl)ethanamine] is not above 10 µM. Then `COc1cccc([C@@H](C)NCc2ccc(OC)c(-c3ccc4nsnc4c3)c2)c1` [(1R)-N-((3-(2,1,3-benzothiadiazol-5-yl)-4-(methyloxy)phenyl)methyl)-1-(3-(methyloxy)phenyl)ethanamine], with not above 10 µM; and `C[C@@H](NCc1ccc(C(F)(F)F)c(-c2ccc(C(F)(F)F)cc2)c1)c1cccc2ccccc12` [(1R)-N-((4′,6-bis(trifluoromethyl)-1,1′-biphenyl-3-yl)methyl)-1-(1-naphthalenyl)ethanamine], with not above 10 µM. For `COc1cccc([C@@H](C)NCc2cccc(-c3nccs3)c2)c1` [(1R)-1-(3-(methyloxy)phenyl)-N-((3-(1,3-thiazol-2-yl)phenyl)methyl)ethanamine], the half-maximal effective concentration (EC50) is not above 10 µM. The figure for `COc1ccc(CN[C@H](C)c2cccc3ccccc23)cc1-c1cccc(C#N)c1` [2′-(methyloxy)-5′-((((1R)-1-(1-naphthalenyl)ethyl)amino)methyl)-1,1′-biphenyl-3-carbonitrile] is not above 10 µM; for `COc1ccc(-c2cc(CN[C@H](C)c3cccc(OC)c3)ccc2F)cc1` [(1R)-N-((6-fluoro-4′-(methyloxy)-1,1′-biphenyl-3-yl)methyl)-1-(3-(methyloxy)phenyl)ethanamine] it is not above 10 µM. The figure for `COc1ccc(CN[C@H](C)c2ccccc2)cc1-c1cccnc1F` [(1R)-N-((3-(2-fluoro-3-pyridinyl)-4-(methyloxy)phenyl)methyl)-1-phenylethanamine] is not above 10 µM; for `COc1ccc(CN[C@H](C)c2ccccc2)cc1-c1cccnc1OCC(F)(F)F` [(1R)-N-((4-(methyloxy)-3-(2-((2,2,2-trifluoroethyl)oxy)-3-pyridinyl)phenyl)methyl)-1-phenylethanamine] it is not above 10 µM.

`COc1ccc(CN[C@H](C)c2ccccc2)cc1-c1cccc(OC(F)(F)F)c1` [(1R)-N-((6-(methyloxy)-3′-((trifluoromethyl)oxy)-1,1′-biphenyl-3-yl)methyl)-1-phenylethanamine]: the concentration giving a half-maximal response (EC50) is not above 10 µM. Then `COc1ccc(CN[C@H](C)c2cccc3ccccc23)cc1-c1ccoc1` [(1R)-N-((3-(3-furanyl)-4-(methyloxy)phenyl)methyl)-1-(1-naphthalenyl)ethanamine], with not above 10 µM; and `COc1ccc(CN[C@H](C)c2cccc(F)c2)cc1-c1ccc(F)cc1` [(1R)-N-((4′-fluoro-6-(methyloxy)-1,1′-biphenyl-3-yl)methyl)-1-(3-fluorophenyl)ethanamine], with not above 10 µM. Then `C[C@@H](NCc1ccc(C(F)(F)F)c(-c2ccc(C(F)(F)F)cc2)c1)c1ccccc1` [Example 314, (1R)-N-((4′,6-bis(trifluoromethyl)-1,1′-biphenyl-3-yl)methyl)-1-phenylethanamine], with not above 10 µM.

On to `COc1ccc(CN[C@H](C)c2ccccc2)cc1-c1ccc(C(F)(F)F)nc1` [(1R)-N-((4-(methyloxy)-3-(6-(trifluoromethyl)-3-pyridinyl)phenyl)methyl)-1-phenylethanamine], for which the EC50 was not above 10 µM. The figure for `C[C@@H](NCc1ccc(OCC(F)(F)F)c(-c2ccc(C(F)(F)F)cc2)c1)c1ccccc1` [(1R)-1-phenyl-N-((6-((2,2,2-trifluoroethyl)oxy)-4′-(trifluoromethyl)-1,1′-biphenyl-3-yl)methyl)ethanamine] is not above 10 µM; for `COc1ccc(CNC(C)c2cccc(OC(F)(F)F)c2)cc1-c1ccc(C(F)(F)F)cc1` (centres unmarked) [N-((6-(methyloxy)-4′-(trifluoromethyl)-1,1′-biphenyl-3-yl)methyl)-1-(3-((trifluoromethyl)oxy)phenyl)ethanamine] it is not above 10 µM; for `COc1ccc(CN[C@H](C)c2cccc3ccccc23)cc1-c1csc(C)n1` [(1R)-N-((4-(methyloxy)-3-(2-methyl-1,3-thiazol-4-yl)phenyl)methyl)-1-(1-naphthalenyl)ethanamine] it is not above 10 µM.

`COc1ccc(CN[C@H](C)c2cccc3ccccc23)cc1-c1ccc2c(ccn2CC(N)=O)c1` [2-(5-(2-(methyloxy)-5-((((1R)-1-(1-naphthalenyl)ethyl)amino)methyl)phenyl)-1H-indol-1-yl)acetamide] displayed an EC50 not above 10 µM. The figure for `COc1cccc([C@@H](C)NCc2ccc(OC)c(-c3nnc(C(F)(F)F)o3)c2)c1` [(1R)-1-(3-(methyloxy)phenyl)-N-((4-(methyloxy)-3-(5-(trifluoromethyl)-1,3,4oxadiazol-2-yl)phenyl)methyl)ethanamine] is not above 10 µM; for `COc1ccc(-c2cccc(CN[C@H](C)c3cccc4ccccc34)c2)cc1` [(1R)-N-((4′-(methyloxy)-1,1′-biphenyl-3-yl)methyl)-1-(1-naphthalenyl)ethanamine] it is not above 10 µM. Then `COc1ccc(-c2cccc(CN[C@H](C)c3ccccc3)c2)nn1` [(1R)-N-((3-(6-(methyloxy)-3-pyridazinyl)phenyl)methyl)-1-phenylethanamine], with not above 10 µM.
